Assay results reported in the supplement of paper PMC8092582.
± gives the standard deviation of the averaged measurements.

System: HeLa
Assay: cell viability (CellTiter-Glo) relative to median of lowest-dilution wells of all drugs (fraction); higher = more viable cells
Protocol: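 HeLa control and CRISPR DDX11 knockout cells were seeded in 384-well plates and incubated for 72 h with each of 64 […] drugs at six concentrations. Viability was read with CellTiter-Glo and normalised to the median of the lowest (6th) dilution wells of all drugs. Two biological replicates (BR1, BR2) are averaged; the concentration unit is not stated.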

[1] = drug concentration (unit not stated): 0.04, genotype: DDX11 knockout
[2] = drug concentration (unit not stated): 0.04, genotype: control (DDX11 wild type)
[3] = drug concentration (unit not stated): 0.12, genotype: DDX11 knockout
[4] = drug concentration (unit not stated): 0.12, genotype: control (DDX11 wild type)
[5] = drug concentration (unit not stated): 0.37, genotype: DDX11 knockout
[6] = drug concentration (unit not stated): 0.37, genotype: control (DDX11 wild type)
[7] = drug concentration (unit not stated): 1.11, genotype: DDX11 knockout
[8] = drug concentration (unit not stated): 1.11, genotype: control (DDX11 wild type)
[9] = drug concentration (unit not stated): 3.33, genotype: DDX11 knockout
[10] = drug concentration (unit not stated): 3.33, genotype: control (DDX11 wild type)
[11] = drug concentration (unit not stated): 10, genotype: DDX11 knockout
[12] = drug concentration (unit not stated): 10, genotype: control (DDX11 wild type)
[13] = drug concentration (unit not stated): 0.01, genotype: DDX11 knockout
[14] = drug concentration (unit not stated): 0.01, genotype: control (DDX11 wild type)

Structure (SMILES) | cell viability [1] | cell viability [2] | cell viability [3] | cell viability [4] | cell viability [5] | cell viability [6] | cell viability [7] | cell viability [8] | cell viability [9] | cell viability [10] | cell viability [11] | cell viability [12] | cell viability [13] | cell viability [14] | cell viability (drug concentration (unit not stated): 30, genotype: DDX11 knockout) | cell viability (drug concentration (unit not stated): 30, genotype: control (DDX11 wild type))
CC(C)(C)Cn1c(N)nc2ccc(-c3[nH]c(C(C)(C)C)nc3-c3ccc(F)cc3)nc21 | 0.937 ± 0.044 | 0.991 ± 0.022 | 0.96 ± 0.11 | 1.03 ± 0.022 | 0.942 ± 0.088 | 0.988 ± 0.15 | 0.921 ± 0.072 | 1.02 ± 0.1 | 0.84 ± 0.03 | 1.06 ± 0.15 | 0.737 ± 0.061 | 1.03 ± 0.25 | – | – | – | –
CO[C@@H](C(=O)N1Cc2[nH]nc(NC(=O)c3ccc(N4CCN(C)CC4)cc3)c2C1)c1ccccc1 | 0.971 ± 0.036 | 0.956 ± 0.032 | 0.877 ± 0.023 | 0.943 ± 0.18 | 0.906 ± 0.032 | 0.943 ± 0.13 | 0.744 ± 0.091 | 0.771 ± 0.065 | 0.624 ± 0.11 | 0.645 ± 0.046 | 0.466 ± 0.043 | 0.58 ± 0.1 | – | – | – | –
COc1ncc(-c2ccc3nccc(-c4ccnnc4)c3c2)cc1NS(=O)(=O)c1ccc(F)cc1F | 0.57 ± 0.044 | 0.661 ± 0.17 | 0.467 ± 0.073 | 0.528 ± 0.19 | 0.33 ± 0.046 | 0.458 ± 0.18 | 0.326 ± 0.042 | 0.416 ± 0.12 | 0.304 ± 0.04 | 0.373 ± 0.12 | – | – | 0.657 ± 0.037 | 0.774 ± 0.23 | – | –
C[C@@H]1COCCN1c1cc(-c2ccnn2C)c2ccnc(-c3ccn[nH]3)c2n1 | 1.03 ± 0.056 | 1.022 ± 0.0024 | 0.981 ± 0.083 | 1.02 ± 0.077 | 0.864 ± 0.021 | 0.959 ± 0.29 | 0.517 ± 0.036 | 0.696 ± 0.19 | 0.313 ± 0.045 | 0.398 ± 0.16 | 0.19 ± 0.086 | 0.227 ± 0.096 | – | – | – | –
O=c1cc(-c2cccc3c2Sc2ccccc2S3)oc(N2CCOCC2)c1 | – | – | 1.06 ± 0.039 | 0.988 ± 0.017 | 1.03 ± 0.027 | 1.01 ± 0.065 | 0.9944 ± 0.005 | 0.9715 ± 0.0052 | 0.963 ± 0.023 | 0.998 ± 0.064 | 0.843 ± 0.048 | 0.951 ± 0.17 | – | – | 0.633 ± 0.053 | 0.854 ± 0.38
Cc1sc2c(c1C)C(c1ccc(Cl)cc1)=N[C@@H](CC(=O)OC(C)(C)C)c1nnc(C)n1-2 [(+)-JQ-1] | 1.02 ± 0.059 | 0.977 ± 0.047 | 0.93 ± 0.14 | 0.962 ± 0.17 | 0.849 ± 0.19 | 0.98 ± 0.49 | 0.671 ± 0.033 | 0.827 ± 0.26 | 0.5507 ± 0.0013 | 0.757 ± 0.2 | 0.5098 ± 0.0035 | 0.637 ± 0.18 | – | – | – | –
CC1(C)CCC(c2ccc(Cl)cc2)=C(CN2CCN(c3ccc(C(=O)NS(=O)(=O)c4ccc(N[C@H](CCN5CCOCC5)CSc5ccccc5)c(S(=O)(=O)C(F)(F)F)c4)cc3)CC2)C1 [ABT-263 (Navitoclax)] | 1.04 ± 0.045 | 0.983 ± 0.041 | 1 ± 0.021 | 1.02 ± 0.076 | 1.04 ± 0.014 | 1.022 ± 0.0018 | 0.976 ± 0.043 | 1.0084 ± 0.00083 | 1.02 ± 0.048 | 1.06 ± 0.058 | 0.841 ± 0.14 | 0.894 ± 0.22 | – | – | – | –
O=C(Nc1c[nH]nc1-c1nc2ccc(CN3CCOCC3)cc2[nH]1)NC1CC1 [AT9283] | 0.94 ± 0.015 | 0.939 ± 0.053 | 1.07 ± 0.076 | 1 ± 0.042 | 1.04 ± 0.046 | 1.07 ± 0.069 | 0.769 ± 0.4 | 0.799 ± 0.063 | 0.469 ± 0.41 | 0.504 ± 0.12 | – | – | 1.03 ± 0.023 | 0.988 ± 0.066 | – | –
CCN(CCO)CCCOc1ccc2c(Nc3cc(CC(=O)Nc4cccc(F)c4)[nH]n3)ncnc2c1 [AZD1152-HQPA (Barasertib)] | 0.927 ± 0.032 | 0.985 ± 0.18 | 0.912 ± 0.066 | 1.01 ± 0.22 | 0.883 ± 0.1 | 0.97 ± 0.28 | 0.888 ± 0.051 | 0.964 ± 0.21 | 0.831 ± 0.027 | 0.957 ± 0.25 | 0.813 ± 0.064 | 0.953 ± 0.23 | – | – | – | –
C=CCn1c(=O)c2cnc(Nc3ccc(N4CCN(C)CC4)cc3)nc2n1-c1cccc(C(C)(C)O)n1 [AZD1775] | 0.9297 ± 0.0031 | 0.962 ± 0.028 | 0.922 ± 0.021 | 0.951 ± 0.021 | 0.85 ± 0.048 | 0.959 ± 0.025 | 0.423 ± 0.12 | 0.615 ± 0.014 | 0.213 ± 0.0052 | 0.288 ± 0.11 | 0.0863 ± 0.058 | 0.092 ± 0.087 | – | – | – | –
C[C@@H]1COCCN1c1cc(C2([S@](C)(=N)=O)CC2)nc(-c2cc[nH]c3nccc2-3)n1 [AZD6738] | 1.04 ± 0.026 | 1.04 ± 0.022 | 1.03 ± 0.046 | 1.03 ± 0.019 | 0.992 ± 0.045 | 0.971 ± 0.022 | 0.862 ± 0.0099 | 0.957 ± 0.13 | 0.648 ± 0.036 | 0.913 ± 0.29 | 0.366 ± 0.094 | 0.55 ± 0.24 | – | – | – | –
NC(=O)Nc1cc(-c2cccc(F)c2)sc1C(=O)N[C@H]1CCCNC1 [AZD7762] | 1.011 ± 0.0048 | 1.04 ± 0.043 | 0.992 ± 0.051 | 0.959 ± 0.023 | 0.819 ± 0.055 | 0.896 ± 0.16 | 0.36 ± 0.022 | 0.647 ± 0.3 | 0.142 ± 0.014 | 0.299 ± 0.12 | – | – | 1.08 ± 0.072 | 1.02 ± 0.025 | – | –
C[C@@H](Nc1cc(F)cc(F)c1)c1cc(C(=O)N(C)C)cc2c(=O)cc(N3CCOCC3)oc12 [AZD8186] | 0.961 ± 0.075 | 1.01 ± 0.036 | 0.946 ± 0.098 | 1.01 ± 0.027 | 0.887 ± 0.049 | 0.952 ± 0.076 | 0.847 ± 0.075 | 0.92 ± 0.12 | 0.764 ± 0.082 | 0.887 ± 0.17 | 0.654 ± 0.13 | 0.908 ± 0.19 | – | – | – | –
CCn1nc(C2CCN(C(=O)CCO)CC2)nc1-c1cnc(N)c(-c2nnc(C(C)(C)C)o2)n1 [AZD8835] | 1.08 ± 0.046 | 1.07 ± 0.014 | 0.987 ± 0.09 | 1.05 ± 0.027 | 0.908 ± 0.098 | 0.988 ± 0.078 | 0.876 ± 0.059 | 0.98 ± 0.12 | 0.803 ± 0.077 | 0.996 ± 0.057 | 0.785 ± 0.052 | 1.05 ± 0.03 | – | – | – | –
CN(Cc1cnc2nc(N)nc(N)c2n1)c1ccc(C(=O)N[C@@H](CCC(=O)O)C(=O)O)cc1 [Abitrexate (Methotrexate)] | 0.79 ± 0.24 | 0.723 ± 0.34 | 0.772 ± 0.21 | 0.665 ± 0.35 | 0.725 ± 0.17 | 0.606 ± 0.33 | 0.462 ± 0.08 | 0.58 ± 0.31 | – | – | – | – | 0.864 ± 0.26 | 0.969 ± 0.64 | – | –
